From the supplement of paper PMC11061612

What was measured:
Experiment in all cases: Bliss excess, mean over the matrix (fraction); higher = more synergy
5637 (Bladder Carcinoma) = test system: 5637 (Bladder Carcinoma)
How it was run: (§1)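 Bliss excess equals the observed combination effect minus the expected value EA + EB − EA·EB, where EA and EB are the effects of each agent alone. Combination Emax is the second-highest inhibition within the matrix. Inhibition was scaled from CellTiter-Glo 2.0 luminescence, with 0 set by vehicle wells and 1 by blank wells, after 72 hours of two-drug dosing of cells plated in 1536-well plates.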

A101D (Melanoma) = test system: A101D (Melanoma)
How it was run: as §1

[1] = test system: A253 (Head and Neck Carcinoma)
How it was run: as §1

[2] = test system: CA46 (Burkitt's Lymphoma)
How it was run: as §1

[3] = test system: CAL-27 (Oral Cavity Carcinoma)
How it was run: as §1

[4] = test system: CGTH-W-1 (Thyroid Gland Carcinoma)
How it was run: as §1

COLO-792 (Melanoma) = test system: COLO-792 (Melanoma)
How it was run: as §1

[5] = test system: ESO26 (Esophageal Adenocarcinoma)
How it was run: as §1

EW-7 (Ewing's Sarcoma) = test system: EW-7 (Ewing's Sarcoma)
How it was run: as §1

[6] = test system: G-402 (Other Solid Carcinomas)
How it was run: as §1

[7] = test system: HCC1428 (Breast Carcinoma)
How it was run: as §1

HCC70 (Breast Carcinoma) = test system: HCC70 (Breast Carcinoma)
How it was run: as §1

IM-9 (Non-Cancerous) = test system: IM-9 (Non-Cancerous)
How it was run: as §1

[8] = test system: JHU-022 (Oral Cavity Carcinoma)
How it was run: as §1

KP-N-YN (Neuroblastoma) = test system: KP-N-YN (Neuroblastoma)
How it was run: as §1

[9] = test system: LU-165 (Small Cell Lung Carcinoma)
How it was run: as §1

[10] = test system: NCI-H1651 (Lung Adenocarcinoma)
How it was run: as §1

[11] = test system: NCI-H2087 (Lung Adenocarcinoma)
How it was run: as §1

RH-41 (Rhabdomyosarcoma) = test system: RH-41 (Rhabdomyosarcoma)
How it was run: as §1

[12] = test system: SK-HEP-1 (Hepatocellular Carcinoma)
How it was run: as §1

| Compound | Bliss excess (5637 (Bladder Carcinoma)) | Bliss excess (A101D (Melanoma)) | Bliss excess [1] | Bliss excess [2] | Bliss excess [3] | Bliss excess [4] | Bliss excess (COLO-792 (Melanoma)) | Bliss excess [5] | Bliss excess (EW-7 (Ewing's Sarcoma)) | Bliss excess [6] | Bliss excess [7] | Bliss excess (HCC70 (Breast Carcinoma)) | Bliss excess (IM-9 (Non-Cancerous)) | Bliss excess [8] | Bliss excess (KP-N-YN (Neuroblastoma)) | Bliss excess [9] | Bliss excess [10] | Bliss excess [11] | Bliss excess (RH-41 (Rhabdomyosarcoma)) | Bliss excess [12] |
| --- | --- | --- | --- | --- | --- | --- | --- | --- | --- | --- | --- | --- | --- | --- | --- | --- | --- | --- | --- | --- |
| COc1nnc2ccc(N3CCC(c4ccc(OCCN5CCN(C)C(=O)[C@H]5C)cc4)CC3)nn12 [AZD5153] + CCN(CCO)CCCOc1ccc2c(Nc3cc(CC(=O)Nc4cccc(F)c4)[nH]n3)ncnc2c1 [AZD2811] (first compound max 1 µM, 7x7, partner max 1 µM) | -0.107 | -0.104 | -0.0153 | -0.0088 | -0.127 | 0.0228 | -0.0406 | 0.0002 | 0.0274 | -0.0728 | -0.0173 | -0.0734 | -0.111 | -0.0601 | -0.0355 | -0.06 | 0.004 | -0.0645 | 0.021 | -0.103 |
| COc1nnc2ccc(N3CCC(c4ccc(OCCN5CCN(C)C(=O)[C@H]5C)cc4)CC3)nn12 [AZD5153] + C=CCn1c(=O)c2cnc(Nc3ccc(N4CCN(C)CC4)cc3)nc2n1-c1cccc(C(C)(C)O)n1 [AZD1775] (first compound max 1 µM, partner max 1 µM) | -0.0321 | -0.0825 | -0.0328 | -0.0572 | -0.0481 | 0.0137 | 0.0823 | -0.0501 | -0.0403 | -0.0226 | -0.0221 | -0.0339 | -0.107 | -0.0698 | -0.135 | 0.0026 | 0.0305 | -0.0368 | 0.0035 | -0.0166 |
| CC1(C)CCC(CN2CCN(c3ccc(C(=O)NS(=O)(=O)c4ccc(NCC5CCOCC5)c([N+](=O)[O-])c4)c(Oc4cnc5[nH]ccc5c4)c3)CC2)=C(c2ccc(Cl)cc2)C1 [Venetoclax] + CCN(CCO)CCCOc1ccc2c(Nc3cc(CC(=O)Nc4cccc(F)c4)[nH]n3)ncnc2c1 [AZD2811] (first compound max 1 µM, 7x7, partner max 1 µM) | -0.0229 | -0.0182 | 0.046 | -0.0283 | -0.0302 | -0.0078 | -0.0048 | -0.0262 | -0.0227 | -0.0036 | 0.118 | -0.0223 | 0.0275 | -0.0139 | 0.104 | -0.0665 | 0.0011 | -0.0281 | 0.0561 | -0.0621 |
| COc1cccc(OCCCN)c1-c1cc(Nc2cnc(C#N)cn2)n[nH]1 [Prexasertib] + C[C@@H]1COCCN1C2=NC(=NC(=C2)C3(CC3)[S@](=N)(=O)C)C4=C5C=CNC5=NC=C4 [AZD6738] (first compound max 1 µM, 7x7, partner max 10 µM) | -0.0304 | -0.0066 | -0.0334 | -0.0755 | 0.0227 | -0.0348 | -0.0376 | -0.0681 | -0.0437 | -0.0253 | -0.02 | -0.0133 | -0.003 | -0.0238 | -0.0048 | -0.0402 | -0.0439 | 0.0072 | -0.0423 | 0.0447 |
| COc1cccc2c1C(=O)c1c(O)c3c(c(O)c1C2=O)C[C@@](O)(C(=O)CO)C[C@@H]3O[C@H]1C[C@H](N)[C@H](O)[C@H](C)O1 [Doxorubicin] + Cc1cc2ncnn2cc1Nc1ncc2c(n1)n(C1CCOCC1)c(=O)n2C [AZD7648] (first compound max 1 µM, 7x7, partner max 10 µM) | 0.0902 | 0.0232 | 0.108 | 0.0813 | 0.0853 | 0.0333 | -0.0081 | 0.032 | 0.0058 | 0.0446 | -0.0499 | 0.0344 | 0.127 | -0.0307 | 0.0805 | -0.0534 | 0.024 | 0.0107 | 0.116 | 0.0292 |
| CC1(C)CCC(CN2CCN(c3ccc(C(=O)NS(=O)(=O)c4ccc(NCC5CCOCC5)c([N+](=O)[O-])c4)c(Oc4cnc5[nH]ccc5c4)c3)CC2)=C(c2ccc(Cl)cc2)C1 [Venetoclax] + Cc1cc2ncnn2cc1Nc1ncc2c(n1)n(C1CCOCC1)c(=O)n2C [AZD7648] (first compound max 1 µM, 7x7, partner max 10 µM) | -0.0504 | -0.0394 | 0.0072 | -0.0454 | 0.0079 | -0.0771 | -0.0139 | -0.0336 | -0.0345 | -0.0359 | -0.006 | -0.0423 | 0.0403 | -0.0392 | -0.0085 | -0.0259 | -0.0342 | -0.0467 | -0.0007 | -0.0387 |
